IC50 data for 15 molecules are collected here from patent publication US12448395B2 (BRISTOL-MYERS SQUIBB COMPANY, priority 2019, dated 2025).

The IC50 is the concentration that gives 50% inhibition. A lower IC50 goes with greater potency.

One assay concerns the target T1, human TLR8 (Homo sapiens, UniProt Q9NR97).
T1 sequence (Q9NR97 27-1041): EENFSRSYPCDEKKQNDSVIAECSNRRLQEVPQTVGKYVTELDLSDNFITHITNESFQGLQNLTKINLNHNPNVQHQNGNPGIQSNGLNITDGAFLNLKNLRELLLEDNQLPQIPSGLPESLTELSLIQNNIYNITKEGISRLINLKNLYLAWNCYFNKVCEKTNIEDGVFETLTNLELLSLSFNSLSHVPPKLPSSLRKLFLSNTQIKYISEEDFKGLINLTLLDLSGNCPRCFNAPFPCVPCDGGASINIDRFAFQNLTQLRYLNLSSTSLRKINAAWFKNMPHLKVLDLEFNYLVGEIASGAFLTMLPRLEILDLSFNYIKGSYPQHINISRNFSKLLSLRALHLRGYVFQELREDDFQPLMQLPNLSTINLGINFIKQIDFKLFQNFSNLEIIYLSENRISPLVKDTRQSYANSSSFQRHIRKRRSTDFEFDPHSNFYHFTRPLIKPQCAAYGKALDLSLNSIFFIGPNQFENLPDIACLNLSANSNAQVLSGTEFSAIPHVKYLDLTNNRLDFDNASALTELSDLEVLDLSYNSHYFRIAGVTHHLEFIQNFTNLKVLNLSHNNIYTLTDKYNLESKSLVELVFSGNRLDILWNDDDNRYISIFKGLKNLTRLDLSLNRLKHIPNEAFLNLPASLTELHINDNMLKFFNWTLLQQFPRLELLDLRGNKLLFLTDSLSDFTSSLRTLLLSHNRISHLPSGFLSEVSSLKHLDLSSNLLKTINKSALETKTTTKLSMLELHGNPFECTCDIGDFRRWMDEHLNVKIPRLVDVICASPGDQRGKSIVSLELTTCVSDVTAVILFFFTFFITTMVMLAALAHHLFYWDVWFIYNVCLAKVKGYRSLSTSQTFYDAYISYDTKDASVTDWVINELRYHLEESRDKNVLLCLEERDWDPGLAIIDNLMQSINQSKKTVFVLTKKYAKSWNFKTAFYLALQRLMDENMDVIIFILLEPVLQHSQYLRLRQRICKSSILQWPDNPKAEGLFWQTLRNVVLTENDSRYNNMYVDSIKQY
Briefly: TLR8 inhibition reporter assay (HEK-Blue SEAP, R848 stimulation). The following applies: HEK-Blue cells overexpressing human TLR8, R848 15.9 μM. Type of assay: cell-based. Here is the method: (§1) TLR7/8/9 Inhibition Reporter Assays
(§2) HEK-Blue™-cells (Invivogen) overexpressing human TLR7, TLR8 or TLR9 receptors were used for screening inhibitors of these receptors using an inducible SEAP (secreted embryonic alkaline phosphatase) reporter gene under the control of the IFN-β minimal promoter fused to five NF-κB and AP-1-binding sites. Briefly, cells are seeded into Greiner 384 well plates (15000 cells per well for TLR7, 20,000 for TLR8 and 25,000 for TLR9) and then treated with test compounds in DMSO to yield a final dose response concentration range of 0.05 nM-50 μM. After a 30 minute compound pre-treatment at room temperature, the cells are then stimulated with a TLR7 ligand (gardiquimod at a final concentration of 7.5 μM), TLR8 ligand (R848 at a final concentration of 15.9 μM) or TLR9 ligand (ODN2006 at a final concentration of 5 nM) to activate NF-κB and AP-1 which induce the production of SEAP. After a 22 hour incubation at 37° C., 5% CO2, SEAP levels are determined with the addition of HEK-Blue™ Detection reagent (Invivogen), a cell culture medium that allows for detection of SEAP, according to manufacturer's specifications. The percent inhibition is determined as the % reduction in the HEK-Blue signal present in wells treated with agonist plus DMSO alone compared to wells treated with a known inhibitor.
Background: In a reporter assay the amount or activity of a reporter protein is the signal.

A further assay deals with T2, human TLR9 (Homo sapiens, UniProt Q9NR96).
T2 sequence (Q9NR96 26-1032): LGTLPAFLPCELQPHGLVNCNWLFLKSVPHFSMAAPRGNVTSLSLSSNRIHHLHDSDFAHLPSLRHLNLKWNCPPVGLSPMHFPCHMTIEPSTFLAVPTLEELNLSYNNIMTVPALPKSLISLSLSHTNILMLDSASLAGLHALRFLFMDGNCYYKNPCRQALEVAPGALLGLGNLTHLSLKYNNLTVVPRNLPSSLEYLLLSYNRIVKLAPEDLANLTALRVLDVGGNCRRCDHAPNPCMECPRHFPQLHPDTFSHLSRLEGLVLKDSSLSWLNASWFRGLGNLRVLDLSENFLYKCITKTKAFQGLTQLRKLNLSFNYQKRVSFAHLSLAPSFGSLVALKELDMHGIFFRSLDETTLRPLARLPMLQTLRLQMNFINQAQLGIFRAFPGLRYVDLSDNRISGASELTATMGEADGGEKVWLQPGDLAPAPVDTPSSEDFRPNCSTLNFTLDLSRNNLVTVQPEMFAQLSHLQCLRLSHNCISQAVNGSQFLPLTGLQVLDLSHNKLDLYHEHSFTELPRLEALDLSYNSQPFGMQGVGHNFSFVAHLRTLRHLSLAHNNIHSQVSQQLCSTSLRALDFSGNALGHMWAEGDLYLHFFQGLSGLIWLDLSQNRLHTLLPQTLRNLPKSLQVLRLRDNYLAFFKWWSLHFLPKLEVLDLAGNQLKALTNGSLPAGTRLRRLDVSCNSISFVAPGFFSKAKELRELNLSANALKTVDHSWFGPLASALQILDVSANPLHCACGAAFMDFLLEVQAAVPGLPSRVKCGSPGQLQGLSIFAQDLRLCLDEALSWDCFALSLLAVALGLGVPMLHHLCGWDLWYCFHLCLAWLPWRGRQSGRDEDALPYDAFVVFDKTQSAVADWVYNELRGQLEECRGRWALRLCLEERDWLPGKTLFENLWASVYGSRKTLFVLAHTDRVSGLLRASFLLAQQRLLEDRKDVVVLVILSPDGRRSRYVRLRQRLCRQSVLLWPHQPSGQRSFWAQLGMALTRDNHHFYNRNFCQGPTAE
Briefly: TLR9 inhibition reporter assay (HEK-Blue SEAP, ODN2006 stimulation). Type of assay: cell-based. The following applies: HEK-Blue cells overexpressing human TLR9, ODN2006 5 nM. The procedure: as §1, §2

Molecule `Cc1cc(-c2[nH]c3sc(N4CCN(CC(C)C)C[C@H]4C)nc3c2C(C)C)cn2ncnc12` [Example 361, (R)-2-(4-isobutyl-2-methylpiperazin-1-yl)-6-isopropyl-5-(8-methyl-[1,2,4]triazolo[1,5-a]pyridin-6-yl)-4H-pyrrolo[3,2-d]thiazole] had an IC50 at human TLR8 of more than 3.13 µM.
Take `Cc1cc(-c2[nH]c3sc(N4CCN(CC(C)(C)O)C[C@H]4C)nc3c2C(C)C)cn2ncnc12` [Example 359, (R)-1-(4-(6-isopropyl-5-(8-methyl-[1,2,4]triazolo[1,5-a]pyridin-6-yl)-4H-pyrrolo[3,2-d]thiazol-2-yl)-3-methylpiperazin-1-yl)-2-methylpropan-2-ol]: the values for the IC50 against human TLR8 and against human TLR9 were more than 3.13 µM and more than 50 µM, respectively.
On to `Cc1cc(-c2[nH]c3sc(N4CCNC[C@H]4C)nc3c2C(C)C)cn2ncnc12` [Example 311, (R)-6-isopropyl-5-(8-methyl-[1,2,4]triazolo[1,5-a]pyridin-6-yl)-2-(2-methylpiperazin-1-yl)-4H-pyrrolo[3,2-d]thiazole], for which the IC50 on human TLR8 is more than 3.13 µM.
On human TLR9, `Cc1c(-c2[nH]c3sc(C4CCN(CC(N)=O)CC4)nc3c2C(C)C)cn(C)c(=O)c1C` [Example 64, 2-(4-(6-isopropyl-5-(1,4,5-trimethyl-6-oxo-1,6-dihydropyridin-3-yl)-4H-pyrrolo[3,2-d]thiazol-2-yl)piperidin-1-yl)acetamide] came in with an IC50 of more than 50 µM.
The same measure, in the same setting: next, `Cc1c(-c2[nH]c3sc(N4CCN(CC(C)(C)O)C[C@@H]4C)nc3c2C(C)C)cn2ncnc2c1C` [Example 345, (S)-1-(4-(5-(7,8-dimethyl-[1,2,4]triazolo[1,5-a]pyridin-6-yl)-6-isopropyl-4H-pyrrolo[3,2-d]thiazol-2-yl)-3-methylpiperazin-1-yl)-2-methylpropan-2-ol]: more than 50 µM.
Molecule `COCCN1CCN(c2nc3c(C(C)C)c(-c4cc(C)c5ncnn5c4)[nH]c3s2)[C@H](C)C1` [Example 357, (R)-6-isopropyl-2-(4-(2-methoxyethyl)-2-methylpiperazin-1-yl)-5-(8-methyl-[1,2,4]triazolo[1,5-a]pyridin-6-yl)-4H-pyrrolo[3,2-d]thiazole] displayed an IC50 at human TLR8 of more than 3.13 µM.
On to `Cc1cc(-c2[nH]c3sc(C(=O)N4CCNC(=O)C4)nc3c2C(C)C)cn2ncnc12` [Example 392, 4-(6-isopropyl-5-(8-methyl-[1,2,4]triazolo[1,5-a]pyridin-6-yl)-4H-pyrrolo[3,2-d]thiazole-2-carbonyl)piperazin-2-one], for which the IC50 on human TLR9 was more than 50 µM.
For `Cc1c(-c2[nH]c3sc(N4CCN(C5COC5)C[C@H]4C)nc3c2C(C)C)cn2ncnc2c1C` [Example 316, (R)-5-(7,8-dimethyl-[1,2,4]triazolo[1,5-a]pyridin-6-yl)-6-isopropyl-2-(2-methyl-4-(oxetan-3-yl)piperazin-1-yl)-4H-pyrrolo[3,2-d]thiazole], the IC50 against human TLR9 was more than 50 µM.
Turning to `Cc1c(-c2[nH]c3sc(CN4CCOCC4)nc3c2C(C)C)cn2ncnc2c1C` [Example 407, 4-((5-(7,8-dimethyl-[1,2,4]triazolo[1,5-a]pyridin-6-yl)-6-isopropyl-4H-pyrrolo[3,2-d]thiazol-2-yl)methyl)morpholine], at human TLR9, the IC50 was more than 50 µM.
In turn, `Cc1c(-c2[nH]c3sc(N4CCN(C5COC5)CC4)nc3c2C(C)C)cn2ncnc2c1C` [Example 286, 5-(7,8-dimethyl-[1,2,4]triazolo[1,5-a]pyridin-6-yl)-6-isopropyl-2-(4-(oxetan-3-yl)piperazin-1-yl)-4H-pyrrolo[3,2-d]thiazole] had an IC50 at human TLR9 of more than 50 µM.
At human TLR9, `Cc1c(-c2[nH]c3sc(CN4CC5(C4)CS(=O)(=O)C5)nc3c2C(C)C)cn2ncnc2c1C` [Example 403, 6-((5-(7,8-dimethyl-[1,2,4]triazolo[1,5-a]pyridin-6-yl)-6-isopropyl-4H-pyrrolo[3,2-d]thiazol-2-yl)methyl)-2-thia-6-azaspiro[3.3]heptane 2,2-dioxide] came in with an IC50 of more than 50 µM.
The molecule `Cc1c(-c2[nH]c3sc(C4CCN(CCS(C)(=O)=O)CC4)nc3c2C(C)C)cn(C)c(=O)c1C` [Example 61, 5-(6-isopropyl-2-(1-(2-(methylsulfonyl)ethyl)piperidin-4-yl)-4H-pyrrolo[3,2-d]thiazol-5-yl)-1,3,4-trimethylpyridin-2 (1H)-one] yielded a concentration for half-maximal inhibition (IC50) on human TLR9 of more than 50 µM.
Molecule `Cc1c(-c2[nH]c3sc(N4CCN(CCS(C)(=O)=O)CC4)nc3c2C(C)C)cn2ncnc2c1C` [Example 282, 5-(7,8-dimethyl-[1,2,4]triazolo[1,5-a]pyridin-6-yl)-6-isopropyl-2-(4-(2-(methylsulfonyl)ethyl)piperazin-1-yl)-4H-pyrrolo[3,2-d]thiazole] displayed a 50% inhibitory concentration (IC50) on human TLR9 of more than 50 µM.
As to `Cc1c(-c2[nH]c3sc(C4CCN(C5COC5)CC4)nc3c2C(C)C)cn2ncnc2c1C` [Example 43, 5-(7,8-dimethyl-[1,2,4]triazolo[1,5-a]pyridin-6-yl)-6-isopropyl-2-(1-(oxetan-3-yl)piperidin-4-yl)-4H-pyrrolo[3,2-d]thiazole], at human TLR9, the IC50 was more than 50 µM.
With `Cc1c(-c2[nH]c3sc(N4CC5(C4)CN(C4COC4)C5)nc3c2C(C)C)cn(C)c(=O)c1C` [Example 306, 5-(6-isopropyl-2-(6-(oxetan-3-yl)-2,6-diazaspiro[3.3]heptan-2-yl)-4H-pyrrolo[3,2-d]thiazol-5-yl)-1,3,4-trimethylpyridin-2 (1H)-one], the IC50 against human TLR9 is more than 50 µM.
